Reference: US20230149418A1, “METHODS AND SYNERGIC COMPOSITIONS FOR TREATING VIRAL INFECTIONS” (HADASIT MEDICAL RESEARCH SERVICES AND DEVELOPMENT LTD., priority 2018, published 2023)
pEC50: −log10 of the molar value. Read-outs that look alike come from different tables or passages of the source.

Assays:
HCMV TB40/E strain = test: Plaque reduction assay, HCMV TB40/E strain in human foreskin fibroblasts, single drugs and 2-drug combinations (Chou-Talalay); type: cell-based, human cytomegalovirus; settings: for Dose of drug alone at Fa 0.75: Fa 0.75, drug alone; for Dose of drug alone at Fa 0.9: Fa 0.9, drug alone; for Dose of drug alone at Fa 0.95: Fa 0.95, drug alone; for Dose of drug alone at Fa 0.97: Fa 0.97, drug alone; for Dose of drug alone at Fa 0.05: Fa (fraction of virus affected) 0.05, drug alone
Method: The CMV strain used was TB40/E. The CMV strain was propagated and tittered in human foreskin fibroblasts (HFF) cells. Cell-free virus stocks and cell-associated clinical isolates were maintained at -70° C. Viral stocks were tittered by serial 10-fold dilution in 24-well tissue culture plates containing HFF monolayers overlaid with agarose-medium. After incubation for 7 to 14 days, plaques were enumerated, and virus titer was determined as plaque forming units (PFU) per milliliter (ml). Stocks of artemisone (10 mM), ganciclovir (10 mM), BDCRB (120 mM), brincidofovir (1 mM), maribavir (10 mM) and letermovir (10 mM) were prepared in DMSO or H2O.
Cell monolayers were inoculated in 24-well culture plates with 0.2 ml of virus suspension containing 60 to 100 PFU per well. After adsorption for 60 -120 min at 37° C., the inoculum was removed, and culture medium was replaced with agarose-medium overlay containing serial concentrations of the tested drug(s). Plates were incubated for 7-14 days at 37° C. in a 5% CO2 incubator. Plaques were then counted microscopically.
The effect of a combination of artemisone with each one of ganciclovir (HCMV DNA polymerase), BDCRB (HCMV terminase inhibitor), brincidofovir (HCMV DNA polymerase inhibitor), maribavir (HCMV UL97 kinase inhibitor) and letermovir (HCMV terminase inhibitor) was evaluated by the classical plaque reduction assay. The in vitro activity of each of the above mentioned antiviral compounds alone or in combination with artemisone was evaluated by the classical plaque reduction assay, using HCMV TB40/E strain in human foreskin fibroblasts cells. The concentration of each antiviral compound that reduced the plaque formation by 50% (EC50) was determined as previously described in Wolf DG et al., J Clin Invest. 1995;95:257-63. The individual EC50 values in human foreskin fibroblasts were as follows: artemisone EC50 - 1 µM; ganciclovir EC50 - 1 µM; maribavir EC50 - 1 µM; BDCRB EC50 - 0.5 µM; letermovir EC50 - 5 nM; brincidofovir EC50 -1 nM.
For the 2-drug combination studies, the EC50 value of each drug was used to determine an equipotent ratio between the two compounds (EC50 of drug 1 / EC50 of drug 2). Serial 2-fold dilutions of a mixture comprising artemisone and another antiviral compound at initial concentrations equivalent to 4-fold the equipotent ratio were added to duplicate wells of cells infected with HCMV. Overall, 5 different concentrations of the drug combinations were used: 4xEC50, 2xEC50, 1xEC50,0.5xEC50,0.25xEC50. The cell monolayers were inoculated in 24-well culture plates with 0.2 ml of virus suspension containing 60 to 100 plaque-forming unit (PFU) per well; the Multiplicity of infection (MOI) was 0.001-0.002 PFU/cell).
D1 and D2 are the doses of the two drugs, and Dx is a dose causing to x% effect (LD0.5 is EC50). Briefly, the software extrapolated a combination index (CI) representing the interaction between the two drugs at specified levels of virus inhibition (that is 50%, 75%, 90%, 95%) versus the percentages of the inhibition induced by each drug alone and in combination (equation 16 in Chou).
A weighted average CI (CIwt) was then calculated for each combination as (CI50+ 2×CI75+3×CI90+4×CI95)/10, to access the drug combinatory effects.
The dose reduction index (DRI) was then calculated as described in Chou. In general, the DRI measures the fold of dose reduction of each drug in the combination at a given effect level compared with the doses of each drug alone. For each one of the below tables: Fa - fraction of virus affected; doses are provided in µm.

HCMV = test: Ex vivo HCMV infection of human decidual (placental) tissue organ cultures, viral mRNA copy number; type: cell-based, human cytomegalovirus; settings: for pEC50: Human betaherpesvirus 5; for Dose of drug alone at Fa 0.9: Fa 0.9, drug alone; for DRI (dose reduction index): combination artemisone + maribavir
Method: Organ cultures were washed and stored at -80° C. until assayed. RNA was extracted, and the purified RNA samples were subjected to reverse transcription (RT), followed by quantitative real-time PCR. The viral mRNA copy number was normalized by the cellular housekeeping gene β-actin.
We employed our model of HCMV infection in human decidual tissues (representing the maternal aspect of the chimeric human placenta), maintained as multi-cell-type 3D organ cultures as described in Weisblum Y. et al. J Virol 2011 85(24): 13204-13. doi: 10.1128/JVI.05749-11. For infection of the organ cultures, decidual tissues were placed in 48-well plates and inoculated with the virus (5x10^4 plaque forming units (PFU)/well) for 12 h to allow effective viral adsorption. The tissues were further monitored for viral infection and spread for 7 days. For determination of the drug EC50 values of in the tissues, serial drug concentrations: each drug separately or combination of the drugs were added to the infected decidual tissues during viral adsorption at any further medium replacement to keep the drug concentration constant. The results were compared to samples to which the drug was not added. The EC50 was defined as the drug concentration required to reduce the viral mRNA copy number by 50%. The effect of drug combinations was tested in accordance with the Chou-Talalay method. All comparative experiments were performed in parallel on tissues from the same donor.
The dose reduction index (DRI) was then calculated as described in Chou. As described earlier, the DRI is a measure of how many folds the dose of each drug in a synergistic combination may be reduced at a given effect level compared with the doses of each drug alone. For each one of the below tables: Fa - fraction of virus affected; doses are provided in µm.

[1] = Human betaherpesvirus 5, Fibroblast, Fa 0.5, drug alone, read-out: Dose of drug alone at Fa 0.5
[2] = Human betaherpesvirus 5, Fibroblast, drug alone, human foreskin fibroblasts, read-out: EC50 (concentration that reduced the plaque formation by 50%)

COc1cccc(N2CCN(C3=Nc4c(F)cccc4[C@H](CC(=O)O)N3c3cc(C(F)(F)F)ccc3OC)CC2)c1 [letermovir]
Dose of drug alone at Fa 0.75 (HCMV TB40/E strain): 0.00438 µm
Dose of drug alone at Fa 0.9 (HCMV TB40/E strain): 0.00952 µm
Dose of drug alone at Fa 0.95 (HCMV TB40/E strain): 0.01614 µm
Dose of drug alone at Fa 0.97 (HCMV TB40/E strain): 0.02351 µm
Dose of drug alone at Fa 0.05 (HCMV TB40/E strain): 2.51E-4 µm
pEC50 (HCMV TB40/E strain; [1]): 8.70
pEC50 (HCMV TB40/E strain; [2]): 8.30
DRI (dose reduction index) (HCMV TB40/E strain; combination artemisone + letermovir, Fa 0.05): 0.5226
DRI (dose reduction index) (HCMV TB40/E strain; combination artemisone + letermovir, Fa 0.5): 1.044
DRI (dose reduction index) (HCMV TB40/E strain; combination artemisone + letermovir, Fa 0.75): 1.351
DRI (dose reduction index) (HCMV TB40/E strain; combination artemisone + letermovir, Fa 0.9): 1.75
DRI (dose reduction index) (HCMV TB40/E strain; combination artemisone + letermovir, Fa 0.9, listed as Let): 1.749
DRI (dose reduction index) (HCMV TB40/E strain; combination artemisone + letermovir, Fa 0.95): 2.084
DRI (dose reduction index) (HCMV TB40/E strain; combination artemisone + letermovir, Fa 0.97): up to 2.4
DRI (dose reduction index) (HCMV TB40/E strain; combination artemisone + letermovir, Fa 0.97, listed as Let): 2.362

CC(C)Nc1nc2cc(Cl)c(Cl)cc2n1[C@H]1O[C@@H](CO)[C@H](O)[C@@H]1O [maribavir]
Dose of drug alone at Fa 0.75 (HCMV TB40/E strain): 0.8994 µm
Dose of drug alone at Fa 0.9 (HCMV TB40/E strain): 3.458 µm
Dose of drug alone at Fa 0.95 (HCMV TB40/E strain): 8.644 µm
Dose of drug alone at Fa 0.97 (HCMV TB40/E strain): 16.5865 µm
Dose of drug alone at Fa 0.05 (HCMV TB40/E strain): 0.00633 µm
pEC50 (HCMV TB40/E strain; [1]): 6.63
pEC50 (HCMV TB40/E strain; [2]): 6.00
DRI (dose reduction index) (HCMV TB40/E strain; combination artemisone + maribavir, Fa 0.05): 2.039
DRI (dose reduction index) (HCMV TB40/E strain; combination artemisone + maribavir, Fa 0.5): 5.884
DRI (dose reduction index) (HCMV TB40/E strain; combination artemisone + maribavir, Fa 0.75): 8.738
DRI (dose reduction index) (HCMV TB40/E strain; combination artemisone + maribavir, Fa 0.9): 12.98
DRI (dose reduction index) (HCMV TB40/E strain; combination artemisone + maribavir, Fa 0.9, listed as MBV): 12.9771
DRI (dose reduction index) (HCMV TB40/E strain; combination artemisone + maribavir, Fa 0.95): 16.9821
DRI (dose reduction index) (HCMV TB40/E strain; combination artemisone + maribavir, Fa 0.97): 20.6
DRI (dose reduction index) (HCMV TB40/E strain; combination artemisone + maribavir, Fa 0.97, listed as MBV): 20.5640
pEC50 (HCMV; ex vivo, Fa 0.5, drug alone, read-out: Dose of drug alone at Fa 0.5): 6.73
pEC50 (HCMV; sole drug, ex vivo decidual tissues, read-out: EC50 (concentration required to reduce the viral mRNA copy number by 50%)): 6.60
Dose of drug alone at Fa 0.05 (HCMV; ex vivo, Fa 0.05, drug alone): 0.01861 µm
Dose of drug alone at Fa 0.75 (HCMV; ex vivo, Fa 0.75, drug alone): 0.4396 µm
Dose of drug alone at Fa 0.9 (HCMV; ex vivo): 1.03 µm
Dose of drug alone at Fa 0.9 (HCMV; ex vivo, listed as MBV): 1.038 µm
Dose of drug alone at Fa 0.95 (HCMV; ex vivo, Fa 0.95, drug alone): 1.862 µm
Dose of drug alone at Fa 0.97 (HCMV; ex vivo, Fa 0.97, drug alone): 2.822 µm
DRI (dose reduction index) (HCMV; ex vivo, Fa 0.05): 0.66
DRI (dose reduction index) (HCMV; ex vivo, Fa 0.5): 0.982
DRI (dose reduction index) (HCMV; ex vivo, Fa 0.75): 1.139
DRI (dose reduction index) (HCMV; ex vivo, Fa 0.9): 1.3
DRI (dose reduction index) (HCMV; ex vivo, Fa 0.9, listed as MBV): 1.321
DRI (dose reduction index) (HCMV; ex vivo, Fa 0.95, listed as MBV): 1.461
DRI (dose reduction index) (HCMV; ex vivo, Fa 0.97): 1.57

brincidofovir
pEC50 (HCMV TB40/E strain; Fa 0.5, drug alone, read-out: Dose of drug alone at Fa 0.5): 9.19
Dose of drug alone at Fa 0.75 (HCMV TB40/E strain): 0.001 µm
Dose of drug alone at Fa 0.9 (HCMV TB40/E strain): 0.002 µm
Dose of drug alone at Fa 0.95 (HCMV TB40/E strain): 0.002 µm
Dose of drug alone at Fa 0.97 (HCMV TB40/E strain): 0.003 µm
Dose of drug alone at Fa 0.05 (HCMV TB40/E strain): 1.87E-4 µm
DRI (dose reduction index) (HCMV TB40/E strain; combination artemisone + brincidofovir, Fa 0.05): 1.43
DRI (dose reduction index) (HCMV TB40/E strain; combination artemisone + brincidofovir, Fa 0.5): 1.48
DRI (dose reduction index) (HCMV TB40/E strain; combination artemisone + brincidofovir, Fa 0.75): 1.5
DRI (dose reduction index) (HCMV TB40/E strain; combination artemisone + brincidofovir, Fa 0.9): up to 1.5
DRI (dose reduction index) (HCMV TB40/E strain; combination artemisone + brincidofovir, Fa 0.9, listed as BCV): 1.52
DRI (dose reduction index) (HCMV TB40/E strain; combination artemisone + brincidofovir, Fa 0.95): 1.53
DRI (dose reduction index) (HCMV TB40/E strain; combination artemisone + brincidofovir, Fa 0.97): 1.54
pEC50 (HCMV TB40/E strain; drug alone, human foreskin fibroblasts, read-out: EC50 (concentration that reduced the plaque formation by 50%)): 9.00
